From EP0449699A2, “Pyrazole derivatives as angiotensin II-receptor antagonists, process for their preparation and pharmaceutical compositions containing them” (LABORATOIRES UPSA, priority 1990, dated 1991) come the findings set out here.

The subject of this experiment is récepteurs surrénaliens de l'angiotensine II. Put plainly: Displacement of radioligand [125I]-SIAII specifically bound to adrenal angiotensin II receptors (rat adrenal homogenate). Format: binding. The settings on record: 60 min, 25°C. The text has this:
L'affinité des produits des exemples pour les récepteurs de l'angiotensine II est évaluée par technique de déplacement d'un radioligand spécifiquement fixé sur les récepteurs surrénaliens de l'angiotensine Il, chez le rat.
Une aliquote d'un homogénat de surrénales de rat incube en présence d'une concentration unique de [^125I]-SIAII (Sar^1, Tyr^4, Ile^8 - angiotensine II), antagoniste des récepteurs de l'angiotensine II, et de deux concentrations d'agents compétiteurs (10^-5 M, 10-^7 M) durant 60 min à 25°C.
La réaction est achevée par ajout de tampon, puis rapide filtration à travers des filtres de papier de verre. La liaison non spécifique est déterminée en présence d'angiotensine Il.
Les résultats sont exprimés, pour les concentrations testées, en pourcentage de déplacement du radioligand spécifiquement fixé sur les récepteurs surrénaliens de l'angiotensine Il.

Each structure is given as a SMILES string.

For the compound `CCCCc1nn(C)c(OCC(=O)OCC)c1Cc1ccc(NC(=O)c2ccccc2C(=O)O)cc1` [Exemple 27, [Méthyl-1 n-butyl-3 ((carboxy-2 benzoyl amino)-4 benzyl)-4 pyrazol-yl-5] oxyacétate d'éthyle], the “% de déplacement du ligand marqué” value reads like this: (competitor 1E-5 M, 10 µM) 92%; (competitor 1E-7 M, 0.1 µM) 39%.
The corresponding values for `CCCc1nn(C)c(OCC(=O)OC)c1Cc1ccc(NC(=O)c2ccccc2C(=O)O)cc1` [Exemple 28, [Méthyl-1 n-propyl-3 ((carboxy-2 benzoyl amino)-4 benzyl)-4 pyrazol-yl-5] oxyacétatede méthyle] are 82% and 34%.
The matching figures for `CCCc1nn(C)c(OCC(=O)OCC)c1Cc1ccc(NC(=O)c2ccccc2C(=O)O)cc1` [Exemple 29, [Méthyl-1 n-propyl-3 ((carboxy-2 benzoyl amino)-4 benzyl)-4 pyrazol-yl-5] oxyacétate d'éthyle]: 80% and 40%.
For the compound `CCCc1nn(C)c(OCC(=O)OCC)c1Cc1ccc(NC(=O)c2c(Cl)ccc(Cl)c2C(=O)O)cc1` [Exemple 30, [Méthyl-1 n-propyl-3 ((carboxy-2 dichloro-3,6-benzoyl amino)-4 benzyl)-4 pyrazol-yl-5] oxyacétate d'éthyle], the “% de déplacement du ligand marqué” value was found to be 96% (competitor 1E-5 M, 10 µM) and 63% (competitor 1E-7 M, 0.1 µM).
The matching figures for `CCCc1nn(C)c(OCC(=O)OC)c1Cc1ccc(NC(=O)c2c(Cl)ccc(Cl)c2C(=O)O)cc1` [Exemple 31, [Méthyl-1 n-propyl-3 ((carboxy-2 dlchloro-3,6-benzoyl amino)-4 benzyl)-4 pyrazol-yl-5] oxyacétatede méthyle]: 93% and 60%.
In the case of `CCCc1nn(CC(F)(F)F)c(OCC(=O)OC)c1Cc1ccc(NC(=O)c2c(Cl)ccc(Cl)c2C(=O)O)cc1` [Exemple 32, [(trifluoro-2,2,2 éthyl)-1 n-propyl-3 ((carboxy-2 dichloro-3,6-benzoyl amino)-4 benzyl)-4 pyrazol-yl-5] oxyacétatede méthyle], the “% de déplacement du ligand marqué” value (competitor 1E-5 M, 10 µM) came out at 98% and the “% de déplacement du ligand marqué” value (competitor 1E-7 M, 0.1 µM) was 52%.
For the compound `CCCc1nn(CC(F)(F)F)c(OCC(=O)OC)c1Cc1ccc(NC(=O)c2ccccc2C(=O)O)cc1` [Exemple 33, [(trifluoro-2,2,2 éthyl)-1 n-propyl-3 ((carboxy-2 benzoyl amino)-4 benzyl)-4 pyrazol-yl-5] oxyacétatede méthyle], the “% de déplacement du ligand marqué” value is, setting by setting: (competitor 1E-5 M, 10 µM) 94%; (competitor 1E-7 M, 0.1 µM) 26%.
`CCCc1nn(C)c(OCC(=O)O)c1Cc1ccc(NC(=O)c2ccccc2S(=O)(=O)O)cc1` [Exemple 35, Acide [Méthyl-1 n-propyl-3 [(sulfo-2 benzoyl amino)-4 benzyl]-4 pyrazol-yl-5] oxy acétique]: the “% de déplacement du ligand marqué” value runs as follows: (competitor 1E-5 M, 10 µM) 85%; (competitor 1E-7 M, 0.1 µM) 48%.
With `CCCCc1nn(C)c(O)c1Cc1ccc(-c2ccccc2C(=O)O)cc1` [Exemple 36, Acide [Méthyl-1 n-butyl-3 hydroxy-5 pyrazol-yl-4] méthyl-4' biphényl-2 carboxylique], the “% de déplacement du ligand marqué” value is given as 62% (competitor 1E-5 M, 10 µM) and 10% (competitor 1E-7 M, 0.1 µM).
The matching figures for `CCCCc1nn(C)c(OCC(=O)O)c1Cc1ccc(-c2ccccc2C(=O)O)cc1` [Exemple 37, Acide [Méthyl-1 n-butyl-3 (carboxy-2' biphényl-yl-4)méthyl-4 pyrazol-yl-5] oxyacétique]: 58% and 9%.
On to `CCCCc1nn(C)c(O)c1Cc1ccc(NC(=O)c2c(Cl)ccc(Cl)c2C(=O)O)cc1` [Exemple 40, Acide [(Méthyl-1 n-butyl-3 hydroxy-5 pyrazolyl-4]méthylphényl-yl-4] amino carbonyl-2 dichloro-3,6 benzoïque], for which the “% de déplacement du ligand marqué” value reads like this: (competitor 1E-5 M, 10 µM) 83%; (competitor 1E-7 M, 0.1 µM) 0%.
`CCCc1nn(CC(=O)OCC)c(O)c1Cc1ccc(NC(=O)c2c(Cl)ccc(Cl)c2C(=O)O)cc1` [Exemple 41, Acide [[éthoxy carbonyl méthyl-1 n-propyl-3 hydroxy-5 pyrazol-yl-4]méthylphényl-yl-4] amino carbonyl-2 dichloro-3,6 benzoïque]: the “% de déplacement du ligand marqué” value amounted to 85% (competitor 1E-5 M, 10 µM) and 2% (competitor 1E-7 M, 0.1 µM).
The matching figures for `CCCc1nn(CC(=O)OCC)c(OCC(=O)OCC)c1Cc1ccc(NC(=O)c2c(Cl)ccc(Cl)c2C(=O)O)cc1` [Exemple 44, Acide [[(Ethoxy carbonyl méthyl)-1 n-propyl-3 (Ethoxy carbonyl méthyloxy)-5 pyrazol-yl-4]méthylphényl-yl-4] amino carbonyl-2 dlchloro-3,6-benzoïque]: 96% and 9%.
The corresponding values for `CCCc1nn(C)c(OCC(=O)OCC)c1Cc1ccc(NC(=O)c2ccccc2S(=O)(=O)O)cc1` [Exemple 45, Acide [[Méthyl-1 n-propyl-3 (Ethoxy carbonyl méthyloxy)-5 pyrazol-yl-4]méthylphényl-yl-4] amino carbonyl-2 benzène sulfonlque.] are 92% and 60%.
As for `CCCCc1nn(C)c(OCC(=O)N2CCOCC2)c1Cc1ccc(NC(=O)c2ccccc2S(=O)(=O)O)cc1` [Exemple 48, N-[[Méthyl-1 n-butyl-3 [(sulfo-2 benzoyl amino)-4 benzyl]-4 pyrazol-yl-5]oxyacétyl] morpholine], the “% de déplacement du ligand marqué” value is listed as 80% (competitor 1E-5 M, 10 µM) and 58% (competitor 1E-7 M, 0.1 µM).
The matching figures for `CCCCc1nn(C)c(OCCO)c1Cc1ccc(NC(=O)c2ccccc2S(=O)(=O)O)cc1` [Exemple 51, Acide [[Méthyl-1 n-butyl-3 (hydroxy-2 éthoxy)-5 pyrazol-yl-4]méthylphényl-yl-4] amino carbonyl-2 benzène sulfonique]: 83% and 60%.
The matching figures for `CCCc1nn(C)c(OC(=O)N(C)C)c1Cc1ccc(NC(=O)c2ccccc2S(=O)(=O)O)cc1` [Exemple 54, Acide [[Méthyl-1 n-propyl-3 (N,N-diméthyl carbamoyl)oxy-5 pyrazol-yl-4]méthylphényl-yl-4] aminocarbonyl-2 benzène sulfonique]: 77% and 62%.
On to `CCCc1nn(C)c(OC(=O)N(CC)CC)c1Cc1ccc(NC(=O)c2ccccc2S(=O)(=O)O)cc1` [Exemple 57, Acide [[Méthyl-1 n-Propyl-3 (N,N-diéthyl carbamoyl)oxy-5 pyrazol-yl-4]méthylphényl-yl-4] amino carbonyl-2 benzène sulfonique], for which the “% de déplacement du ligand marqué” value was 80% (competitor 1E-5 M, 10 µM) and 60% (competitor 1E-7 M, 0.1 µM).
With `CCCc1nn(CC(F)(F)F)c(OC(=O)N(C)C)c1Cc1ccc(NC(=O)c2ccccc2S(=O)(=O)O)cc1` [Exemple 60, Acide [[(trifluoro-2,2,2 éthyl)-1 n-Propyl-3 (N,N-diméthyl carbamoyl)oxy-5 pyrazol-yl-4]méthylphényl-yl-4] amino carbonyl-2 benzène sulfonique], the “% de déplacement du ligand marqué” value (competitor 1E-5 M, 10 µM) amounted to 84% and the “% de déplacement du ligand marqué” value (competitor 1E-7 M, 0.1 µM) is 49%.
The matching figures for `CCCc1nn(CC(F)(F)F)c(OCCO)c1Cc1ccc(NC(=O)c2ccccc2S(=O)(=O)O)cc1` [Exemple 63, Acide [[(trffiuoro-2,2,2 éthyl)-1 n-Propyl-3 (hydroxy-2 éthoxy)-5 pyrazol-yl-4]méthyl-4 phényl-yl-4] amino carbonyl-2 benzène sulfonique]: 91% and 64%.
For `CCCc1nn(C)c(OCC(=O)N2CCN(c3ccccc3OC)CC2)c1Cc1ccc(NC(=O)c2ccccc2S(=O)(=O)O)cc1` [Exemple 66, (Méthoxy-2 phényl)-1 [[méthyl-1 n-propyl-3 [(sulfo-2 benzoyl amino)-4 benzyl]-4 pyrazol-yl-5]oxyacétyl]-4 pipérazine], the “% de déplacement du ligand marqué” value (competitor 1E-5 M, 10 µM) was 92% and the “% de déplacement du ligand marqué” value (competitor 1E-7 M, 0.1 µM) was found to be 63%.
`CCCc1nn(C)c(OCC(=O)OCC)c1Cc1ccc(-c2ccccc2-c2nnn[nH]2)cc1` [Exemple 70, [Méthyl-1 n-Propyl-3 [(tétrazolyl-5)-2' biphényl-yl-4]méthyl-4 pyrazol-yl-5] oxy acétate d'éthyle]: the “% de déplacement du ligand marqué” value runs as follows: (competitor 1E-5 M, 10 µM) 67%; (competitor 1E-7 M, 0.1 µM) 49%.
`CCCc1nn(C)c(O)c1Cc1ccc(-c2ccccc2-c2nnn[nH]2)cc1` [Exemple 71, Méthyl-1 n-Propyl-3 hydroxy-5 [(tétrazolyl-5)-2' biphényl-yl-4] méthyl-4 pyrazole]: the “% de déplacement du ligand marqué” value reads like this: (competitor 1E-5 M, 10 µM) 58%; (competitor 1E-7 M, 0.1 µM) 24%.
Regarding `CCCc1nn(CC(F)(F)F)c(O)c1Cc1ccc(-c2ccccc2-c2nnn[nH]2)cc1` [Exemple 74, (Trifluoro-2,2,2 éthyl)-1 n-Propyl-3 hydroxy-5 [(tétrazolyl-5)-2' biphényl-yl-4] méthyl-4 pyrazole], the “% de déplacement du ligand marqué” value runs as follows: (competitor 1E-5 M, 10 µM) 66%; (competitor 1E-7 M, 0.1 µM) 58%.
The matching figures for `CCCCc1nn(CC(F)(F)F)c(OCC(=O)OCC)c1Cc1ccc(-c2ccccc2-c2nn[nH]n2)cc1` [Exemple 78, [(trifluoro-2,2,2éthyl)-1 n-Butyl-3 [(tétrazolyl-5)-2' biphényl-yl-4]méthyl-4 pyrazol-yl-5] oxy acétate d'éthyle]: 73% and 58%.
